Experimental findings from PubChem BioAssay (NCI) are described below.

Test systems include CAKI-1 renal; NCI-H522 lung; OVCAR-4 ovarian; OVCAR-8 ovarian; SF-539 CNS; SK-MEL-5 melanoma; SNB-75 CNS; T-47D breast.
Holding throughout (experiment): NCI-60 cell line screen, 48 h

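How tested: cells in 96-well plates exposed to compound for 48 hours at five concentrations. GI50 = concentration required for 50% inhibition of growth. TGI: concentration producing complete growth inhibition.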 A value given as a limit tells only on which side of the number the result lay.

Regarding `CC#CC#C/C=C1/C=CC2(CCCCO2)O1` (stereo not given), the TGI with CAKI-1 renal, in the assay with NCI-H522 lung, with OVCAR-4 ovarian, in the assay on OVCAR-8 ovarian, in the assay with SF-539 CNS and with SK-MEL-5 melanoma was more than 100 µM in each case. For the same compound, the TGI in the assay on SNB-75 CNS and with T-47D breast was more than 100 µM throughout.

`COc1cc(-c2cc(-c3ccc(Nc4nc(Nc5ccc(Cl)cc5)nc(Nc5ccc(Cl)cc5)n4)cc3)no2)cc(OC)c1OC`: the GI50 was 5.53 µM in the assay with CAKI-1 renal; 2.89 µM in the assay on NCI-H522 lung; 57.1 µM in the assay on OVCAR-4 ovarian; 36 µM in the assay with OVCAR-8 ovarian; 9.05 µM in the assay on SF-539 CNS; 4.47 µM with SK-MEL-5 melanoma. In addition, the GI50 in the assay on SNB-75 CNS is 12.7 µM; with T-47D breast it was 3.15 µM. Also, the TGI is more than 100 µM with CAKI-1 renal; more than 100 µM with NCI-H522 lung; more than 100 µM with OVCAR-4 ovarian; more than 100 µM in the assay on OVCAR-8 ovarian; more than 100 µM in the assay with SF-539 CNS; 58.1 µM in the assay with SK-MEL-5 melanoma. Further, the TGI in the assay with SNB-75 CNS and in the assay with T-47D breast was more than 100 µM each time.

As to `COC1C[C@H](O[C@@H]2C[C@H](O[C@@H]3C[C@H](O[C@@H]4C(=O)c5c(cc6cc(O[C@H]7C[C@@H](O[C@H]8C[C@@H](O)[C@H](O)C(C)O8)[C@H](O)C(C)O7)c(C)c(O)c6c5O)C[C@H]4C(OC)C(=O)[C@@H](O)[C@@H](C)O)OC(C)[C@H]3O)OC(C)[C@@H]2O)OC(C)[C@@H]1O` (stereo not given in full), the GI50 was 8 µM in the assay on CAKI-1 renal; 0.0696 µM in the assay with NCI-H522 lung; 0.134 µM in the assay with OVCAR-4 ovarian; 0.108 µM in the assay on OVCAR-8 ovarian; 0.0736 µM in the assay with SF-539 CNS; 0.0641 µM in the assay on SK-MEL-5 melanoma. In addition, the GI50 with SNB-75 CNS was 0.0622 µM; with T-47D breast, 0.0701 µM. In addition, the TGI is more than 32.5 µM in the assay on CAKI-1 renal; 0.265 µM in the assay on NCI-H522 lung; 2.76 µM with OVCAR-4 ovarian; more than 32.5 µM in the assay on OVCAR-8 ovarian; 0.316 µM in the assay with SF-539 CNS; 0.175 µM in the assay on SK-MEL-5 melanoma. The TGI was determined as 0.442 µM in the assay on SNB-75 CNS and 7 µM in the assay with T-47D breast.

On to `C#Cc1cccc(NC(=O)C2CCCCN2C(=O)CCl)c1` (stereo not given), for which the GI50 is 13.4 µM in the assay on CAKI-1 renal; 8.72 µM in the assay with NCI-H522 lung; 8.77 µM in the assay on OVCAR-4 ovarian; 20.3 µM in the assay with OVCAR-8 ovarian; 17.4 µM in the assay on SF-539 CNS; 9.54 µM in the assay with SK-MEL-5 melanoma. Moreover, the GI50 is 17.9 µM in the assay on SNB-75 CNS and 16 µM in the assay with T-47D breast. In addition, the TGI in the assay with CAKI-1 renal was 26.3 µM; with NCI-H522 lung it was 24.4 µM; with OVCAR-4 ovarian it was 24.5 µM; in the assay on OVCAR-8 ovarian, more than 82.5 µM; in the assay on SF-539 CNS, 49.4 µM; with SK-MEL-5 melanoma, 41.2 µM. The TGI in the assay with SNB-75 CNS and in the assay with T-47D breast was more than 82.5 µM each time.

`COc1ccc(C2CC(=O)Nc3c2c(C)nn3-c2nc3ccccc3[nH]2)cc1OC` (stereo not given): the GI50 was 3.83 µM in the assay on CAKI-1 renal; 3.83 µM in the assay with NCI-H522 lung; 6.42 µM with OVCAR-4 ovarian; 4.09 µM in the assay with OVCAR-8 ovarian; 2.85 µM in the assay with SF-539 CNS; 2.42 µM in the assay with SK-MEL-5 melanoma. Also, the GI50 with SNB-75 CNS is 3.46 µM; in the assay with T-47D breast, 4.49 µM. The TGI is 24.3 µM in the assay with CAKI-1 renal; 25.6 µM in the assay on NCI-H522 lung; more than 100 µM in the assay with OVCAR-4 ovarian; 43.6 µM in the assay on OVCAR-8 ovarian; 9.48 µM with SF-539 CNS; 6.17 µM with SK-MEL-5 melanoma. Further, the TGI with SNB-75 CNS is more than 56.1 µM; in the assay with T-47D breast it was 50.1 µM.

In the case of `Nc1cc2c3ccccc3ccc2c2ccccc12`, the GI50 was more than 100 µM in the assay with CAKI-1 renal; more than 100 µM in the assay on NCI-H522 lung; more than 22.5 µM in the assay with OVCAR-4 ovarian; more than 44.6 µM with OVCAR-8 ovarian; more than 51.2 µM in the assay on SF-539 CNS; 16.7 µM with SK-MEL-5 melanoma. For the same compound, the values for the GI50 with SNB-75 CNS and with T-47D breast were more than 30.5 µM and more than 38.1 µM, respectively. The TGI in the assay with CAKI-1 renal, in the assay with NCI-H522 lung, in the assay with OVCAR-4 ovarian, in the assay on OVCAR-8 ovarian, with SF-539 CNS and in the assay with SK-MEL-5 melanoma was more than 100 µM each time. In addition, the TGI in the assay on SNB-75 CNS and in the assay with T-47D breast was more than 100 µM in each case.

With `COc1cc(OC)c(OC)cc1/C=C/c1ccc2ccccc2n1`, the TGI in the assay with CAKI-1 renal, in the assay on NCI-H522 lung, in the assay on OVCAR-4 ovarian, in the assay with OVCAR-8 ovarian, in the assay on SF-539 CNS and with SK-MEL-5 melanoma was more than 10 µM in each case. Moreover, the TGI in the assay on SNB-75 CNS and in the assay with T-47D breast was more than 10 µM throughout.

With `O=C(Nc1ccc(-c2cn3ccccc3n2)cc1)c1cc(Br)ccc1O`, the TGI in the assay on CAKI-1 renal, with NCI-H522 lung, in the assay on OVCAR-4 ovarian, in the assay with OVCAR-8 ovarian, with SF-539 CNS and in the assay with SK-MEL-5 melanoma was more than 100 µM in each case. Besides, the TGI in the assay on SNB-75 CNS and with T-47D breast was more than 100 µM in each case.

On to `CCN1C(=O)N(CC)C2C1NN=c1s/c(=C\c3ccc(Br)cc3)c(=O)n12` (stereo not given), for which the GI50 in the assay on CAKI-1 renal was 0.065 µM; with NCI-H522 lung, 0.0558 µM; with OVCAR-4 ovarian, 0.388 µM; in the assay with OVCAR-8 ovarian, 0.416 µM; with SF-539 CNS, 0.0759 µM; in the assay on SK-MEL-5 melanoma, 0.118 µM. Further, the GI50 was 0.0808 µM with SNB-75 CNS and 5.11 µM in the assay on T-47D breast. Besides, the TGI with CAKI-1 renal was more than 100 µM; in the assay with OVCAR-4 ovarian, more than 100 µM; in the assay with OVCAR-8 ovarian, more than 100 µM; with SF-539 CNS, 5.87 µM; in the assay on SK-MEL-5 melanoma, 1.84 µM; in the assay on SNB-75 CNS it was more than 100 µM. For the same compound, the TGI in the assay on T-47D breast was more than 100 µM.

As to `CC1(/C=C/c2ccc(-c3ccccc3)cc2)CCn2cnc3ncnc(c32)N1O` (stereo not given), the GI50 in the assay with CAKI-1 renal was 0.327 µM; with NCI-H522 lung, 0.521 µM; in the assay with OVCAR-4 ovarian, 0.298 µM; in the assay on OVCAR-8 ovarian, 0.419 µM; in the assay on SF-539 CNS, 0.388 µM; with SK-MEL-5 melanoma, 0.324 µM. The values for the GI50 with SNB-75 CNS and in the assay on T-47D breast were 0.387 µM and 0.462 µM, respectively. Also, the TGI is 12.2 µM in the assay on CAKI-1 renal; 34 µM in the assay with NCI-H522 lung; more than 50.2 µM with OVCAR-4 ovarian; more than 55.1 µM in the assay with OVCAR-8 ovarian; 5.55 µM in the assay on SF-539 CNS; 2.75 µM in the assay with SK-MEL-5 melanoma. For the same compound, the TGI was found to be 14.5 µM in the assay with SNB-75 CNS and 54.3 µM with T-47D breast.
